Experimental data published in patent US11254654B2, “Heterochromatin gene repression inhibitors” (The University of North Carolina at Chapel Hill, priority 2017, dated 2022).
Counter-ions that a name gives are not always drawn.

Columns and labels:
Assay type in all cases: cell-based, mouse
CiA:Oct4 N118/N163 cells = assay: Compound 2 activity and fluorescence microscopy; conditions: 7.5 μM, 48 hrs
Experimental: Day 0, CiA:Oct4 N118/N163 cells were plated into 96 well plate and 10 or 15 cm plate formats. Day 1, media was aspirated and replaced with fresh ES media +/−7.5 μM compound 2+/−6 nM rapamycin. Day 2, media was aspirated and replaced with fresh ES media +/−7.5 μM compound 2+/−6 nM rapamycin. Day 3, media was removed from 96 well plate and cells were washed with PBS prior to trypsinization and flow cytometry analysis as described above to confirm functional inhibition of compound 2.
Prior to imaging, ES media was removed from 10-15 cm plates and replaced with PBS to decrease background fluorescence. Cells were imaged using an Olympus IX71 microscope analyzed using Cellsens software. Representative images were taken in 2 random plate locations for each of the four conditions. Image levels were normalized using Adobe Photoshop.
In order to confirm that compound 2 was inhibiting H3K9me3 deposition, CiA:Oct4 N118/N163 cells were grown for 48-hours with rapamycin mediating HP1 recruitment, +/−compound 2 (FIG. 11G). Representative brightfield and fluorescence images were taken for the four sample types ((−) rapamycin/(−) compound 2, (−) rapamycin/(+) compound 2, (+) rapamycin/(−) compound 2, (+) rapamycin/(+) compound 2). […] Subsequently, all samples were analyzed by flow cytometry to confirm the inhibitory effects of compound 2 on HP1-mediated gene repression. […]

H3K4me3 = assay: ChIP-qPCR at CiA:Oct4 locus, TSS+489; conditions: 48 hr treatment, +/- rapamycin
Experimental: (§1) 10-15 cm plates of cells grown to confluence were washed with PBS and trypsinized 10 min with 0.25% trypsin-EDTA. ES media was added to quench the trypsin, and cells were resuspended prior to counting using a Countess II Automated Cell Counter (ThermoFisher). Cell suspension was centrifuged at 300×g for 5 min. Cell pellet was washed with PBS and pelleted at 300×g for 5 min. Cells were resuspended and crosslinked with 1% formaldehyde for 10 min. 2.5 M glycine (0.125 M final) was added and samples were put on ice to stop the crosslinking. Nuclei were isolated by incubating cells on ice for 10 min in CiA NP Rinse 1 (50 mM HEPES pH 8.0, 140 mM NaCl, 1 mM EDTA, 10% glycerol, 0.5% NP40, 0.25% Triton X100). Nuclei were pelleted at 1200×g for 5 min at 4° C. and resuspended in CiA NP Rinse 2 (10 mM Tris pH 8.0, 1 mM EDTA, 0.5 mM EGTA, 200 mM NaCl). Nuclei were pelleted at 1200×g for 5 min at 4° C. Nuclei were resuspended in shearing buffer (0.1% SDS, 1 mM EDTA pH 8, 10 mM Tris HCl, pH 8) and sonicated for 5 min using a Covaris sonicator (Hathaway et al., 2012). Input DNA and ChIP DNA was isolated according to Active Motif High Sensitivity ChIP-IT kit procedure. ChIP for H3K9me3 used Abcam (ab8898) primary antibody.
(§2) Enrichment of ChIP DNA was determined by qPCR. 384-well PCR plates contained 2 μL of template DNA and 8 μL of reaction mix of primers and FastStart Universal SYBR Green 2× master mix (Roche). Samples were run on a ViiA7 Real-Time PCR system (Applied Biosystems) (Pattenden et al., 2016). Plates were setup in technical duplicate or triplicate. Samples were analyzed using the comparative ΔΔCt method and normalized against an intergenic control region (Hathaway et al., 2012; Livak & Schmittgen, 2001). Experiment was performed in a minimum biological triplicate and data is representative of sample average. T-test were used to determine significant p-values.
(§3) To further characterize the effects of compound 2 on the HP1-heterochromatin pathway, perturbations in the levels of HP1γ, H3K4me3, and G9a at the CiA:Oct4 locus were assayed for using ChIP followed by […] analysis. Enrichment levels were determined at 489 bp downstream of the TSS and normalized to a house-keeping gene, intracisternal A-type particles (IAP). As shown previously, HP1γ functions similarly to HP1α in our inhibition assay. […] No change in H3K4me3 levels were detected upon compound 2 treatment despite the decrease in H3K9me3 (FIG. 11E). […]
(§4) Referring to FIG. 11A, CiA:Oct4 csHP1α recruiting cells were incubated with 7.5 μM compound 2+/−6 nM rapamycin for 48 hrs and representative brightfield and GFP fluorescence images were acquired at 20×. […] GFP expression was analyzed by flow cytometry. […]

G9a = assay: ChIP-qPCR at CiA:Oct4 locus, TSS+489; conditions: four treatment conditions
Experimental: as §1, §2, §3, §4

HP1γ = assay: ChIP-qPCR at CiA:Oct4 locus, TSS+489
Experimental: as §1, §2, §3, §4

[1] = tested on: HP1-mediated gene repression; assay: UNC2524 structure-activity relationship assay, CiA:Oct4 N118/N163 flow cytometry; conditions: 10 μM, 48 hrs
Experimental: Day 0, CiA:Oct4 N118/163 cells were grown in ES media and seeded at a density of 10,000 cells per well (100,000 cells/mL) into gelatin coated 96 well plates. Day 1, media was aspirated and replaced with 100 μL fresh ES media containing +/−6 nM rapamycin and 10 μM of each compound derived for SAR. Day 2, culture media was aspirated away and […] fresh ES media containing +/−6 nM rapamycin and 10 μM of compounds were added as on Day 1. Day 3, the media was aspirated out of the wells and the cells were washed with PBS and trypsinized using 0.25% trypsin-EDTA. Trypsin was quenched with serum. Cells were resuspended by pipetting to prepare the plates for flow cytometry analysis as described above.
Compounds 2-8 were chemically synthesized from UNC2524 (compound 1) (FIG. 10A). To ascertain the biological activity of these chemical derivatives, CiA:Oct4 N118/N163 cells were used. Cells were treated with rapamycin plus compounds 2 and 5-8 for 48-hours prior to analysis by flow cytometry. Compound activity was confirmed by an increase in % inhibition compared to control samples. Compounds 5 and 6 added a pentenal chain and BOC group to the piperidine ring while compound 7 substituted a hexyl chain for the pyrrolidine. […] Further, it was identified that the 7-methoxy side chain was amenable to modification with a benzene ring in compound 8, while preserving most of the biological activity (˜51%).
Referring to FIG. 10A, a series of compounds derived from compound 1 (UNC2524) were designed to optimize compound activity and determine amenability of compounds for affinity purification methods. Referring to FIG. 10B, CiA:Oct4 N118/N163 cells were treated with SAR compounds at 10 μM for 48 hrs+/−6 nM rapamycin. Flow cytometry analysis was used to determine the % GFP (+) population. […] (p≤0.05*, 0.01**).

H3K9me3 = assay: ChIP-qPCR at CiA:Oct4 locus, TSS+489; conditions: 48 hr, + 6 nM rapamycin, 489 bp downstream of TSS
Experimental: 10-15 cm plates of cells grown to confluence were washed with PBS and trypsinized 10 min with 0.25% trypsin-EDTA. ES media was added to quench the trypsin, and cells were resuspended prior to counting using a Countess II Automated Cell Counter (ThermoFisher). Cell suspension was centrifuged at 300×g for 5 min. Cell pellet was washed with PBS and pelleted at 300×g for 5 min. Cells were resuspended and crosslinked with 1% formaldehyde for 10 min. 2.5 M glycine (0.125 M final) was added and samples were put on ice to stop the crosslinking. […]
Enrichment of ChIP DNA was determined by qPCR. […] Samples were analyzed using the comparative ΔΔCt method and normalized against an intergenic control region (Hathaway et al., 2012; Livak & Schmittgen, 2001). […]
Chromatin immunoprecipitation (ChIP) was used to determine the levels of H3K9me3 at the Oct4 locus upon treatment with compound 2. […] For this reason, the levels of H3K9me3 were analyzed at 489 bp downstream of the TSS in all four sample conditions. qPCR was used to amplify this region in addition to an intergenic control region. […]
as §4

## COc1cc2nc(N3CCCC3)nc(N[C@@H]3CCCNC3)c2cc1OC [compound 2, (R)-6,7-Dimethoxy-N-(Piperidin-3-yl)-2-(Pyrrolidin-1-yl)Quinazolin-4-Amine Trifluoroacetic Acid Salt]
CiA:Oct4 N118/N163 cells; +/- 6 nM rapamycin
  ES cell differentiation and colony morphology: did not result in gross cell differentiation or effect colony morphology
CiA:Oct4 N118/N163 cells; with and without rapamycin
  GFP expression by flow cytometry compared to untreated controls: increased GFP expression
H3K4me3
  Change in H3K4me3 levels: No change
G9a
  Change in G9a levels: No significant changes
HP1γ; compound alone, no HP1 recruitment
  Increase of HP1γ levels compared to controls: 46%
HP1γ; with HP1 recruitment (rapamycin)
  Decrease of HP1γ levels compared to HP1 recruitment alone: 37%
[1]; + 6 nM rapamycin
  % inhibition compared with parent compound 1: increase in activity over the parent
H3K9me3
  Decrease of H3K9me3 enrichment compared to plus rapamycin control: ~9 fold

## C=CCCCN1CCC[C@H](Nc2nc(N3CCCC3)nc3cc(OC)c(OC)cc23)C1 [compound 5, (S)-6,7-Dimethoxy-N-(1-(Pent-4-en-1-yl)Piperidin-3-yl)-2-(Pyrrolidin-1-yl)Quinazolin-4-Amine, Trifluoroacetic Acid Salt]
[1]; + 6 nM rapamycin
  % inhibition compared with parent compound 1: decrease in inhibition

## COc1cc2nc(N3CCCC3)nc(N[C@@H]3CCCN(C(=O)OC(C)(C)C)C3)c2cc1OC [compound 6, Tert-Butyl (R)-3-((6,7-Dimethoxy-2-(Pyrrolidin-1-yl)Quinazolin-4-yl)Amino)Piperidine-1-Carboxylate]
[1]; + 6 nM rapamycin
  % inhibition compared with parent compound 1: decrease in inhibition

## CCCCCCNc1nc(N[C@H]2CCCNC2)c2cc(OC)c(OC)cc2n1 [compound 7, (S)—N^2-Hexyl-6,7-Dimethoxy-N^4-(Piperidin-3-yl)Quinazoline-2,4-Diamine]
[1]
  Toxicity in SAR assay: toxicity and low cell counts
[1]; + 6 nM rapamycin
  % inhibition compared with parent compound 1: decrease in inhibition

## COc1cc2c(N[C@H]3CCCNC3)nc(N3CCCC3)nc2cc1OCCCN1CCCCC1 [compound 8, (S)-6-Methoxy-7-(3-(Piperidin-1-yl)Propoxy)-N-(Piperidin-3-yl)-2-(Pyrrolidin-1-yl)Quinazolin-4-Amine Trifluoroacetic Acid Salt]
[1]; + 6 nM rapamycin
  Biological activity preserved: ~51%
